For assay [1], the system named is Eotaxin-3 (CCL26) release. In words: Human Whole Blood Eotaxin-3 Assay (IL-4 stimulated). The format is cell-based. To be noted: Homo sapiens; geometric mean across assay runs and compound batches; EC50 provided for test compounds with >80% Emax. The method, boiled down: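 Lithium-heparin human whole blood preincubated 2 h at 37 °C with compounds (4-fold dilutions, triplicate, 0.5% DMSO final). Then stimulated with 400 pM final recombinant human IL-4 for 48 h. Eotaxin-3 in supernatant quantified by MSD immunoassay.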

Assay [2] concerns the target T1, STAT6 (Homo sapiens, UniProt P42226).
T1 construct: These cells express endogenous STAT6; host or cells: HeLa LgBiT clone 4.14 (CRISPR knock-in of HiBiT into the endogenous STAT6 gene)
T1 sequence (P42226 1-847): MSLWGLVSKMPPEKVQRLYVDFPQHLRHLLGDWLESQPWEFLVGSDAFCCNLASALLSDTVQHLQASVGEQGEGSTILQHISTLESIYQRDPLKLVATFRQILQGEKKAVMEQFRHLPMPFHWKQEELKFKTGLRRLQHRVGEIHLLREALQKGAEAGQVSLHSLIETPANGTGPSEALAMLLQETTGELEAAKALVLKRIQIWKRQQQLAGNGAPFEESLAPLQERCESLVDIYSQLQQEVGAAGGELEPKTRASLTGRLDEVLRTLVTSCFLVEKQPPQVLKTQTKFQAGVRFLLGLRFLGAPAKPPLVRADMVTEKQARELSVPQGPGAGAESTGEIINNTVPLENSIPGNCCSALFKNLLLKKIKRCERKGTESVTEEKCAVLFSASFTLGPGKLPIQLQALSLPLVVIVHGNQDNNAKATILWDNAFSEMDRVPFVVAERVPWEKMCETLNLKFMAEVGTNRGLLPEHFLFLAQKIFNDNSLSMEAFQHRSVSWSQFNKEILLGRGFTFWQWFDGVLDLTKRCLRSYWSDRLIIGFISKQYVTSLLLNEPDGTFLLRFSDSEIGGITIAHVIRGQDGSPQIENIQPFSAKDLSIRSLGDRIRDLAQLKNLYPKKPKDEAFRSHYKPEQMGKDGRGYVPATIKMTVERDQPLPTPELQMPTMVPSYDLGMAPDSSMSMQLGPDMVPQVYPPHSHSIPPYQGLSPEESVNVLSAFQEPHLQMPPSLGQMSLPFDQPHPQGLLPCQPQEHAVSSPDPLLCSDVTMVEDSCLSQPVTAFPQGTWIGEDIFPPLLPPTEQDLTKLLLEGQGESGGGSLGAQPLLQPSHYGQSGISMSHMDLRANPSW
Briefly: STAT6 Degrader Assay (HiBiT based, HeLa LgBiT clone 4.14 cells). The format is cell-based. To be noted: for DC50: geometric mean across assay runs and compound batches, DC50 provided for test compounds with >80% Emax, read-out: STAT6 degradation DC50. The method, boiled down:
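HeLa LgBiT clone 4.14 with CRISPR HiBiT-tagged endogenous STAT6, 5000 cells/well, compound exposure 4-24 h at 37° C. Residual STAT6 read as Nano-Glo luminescence after 0.5 h. 50 μM terfenadine set 100% degradation; DC50 in nM.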

By EC50 is commonly meant the concentration giving half of the maximal effect. A high value points to lower potency in that assay. By DC50 is commonly meant the concentration giving 50% degradation. In the case of `CNc1ccn(-c2ccnc3c2cc([C@H](C)N2CC=C(c4c(C)cc(C(=O)N5CCC(CN6CCN(c7ncc(NC8CCC(=O)NC8=O)cc7F)C[C@@H]6C)CC5)cc4F)CC2)n3C)c(=O)c1` (stereo partly drawn) [Example 2g94, 3-((5-fluoro-6-((S)-4-((1-(3-fluoro-5-methyl-4-(1-((S)-1-(1-methyl-4-(4-(methyl-amino)-2-oxopyridin-1(2H)-yl)-1H-pyrrolo[2,3-b]pyridin-2-yl)ethyl)-1,2,3,6-tetrahydro-pyridin-4-yl)benzoyl)piperi-din-4-yl)methyl)-3-methyl-piperazin-1-yl)pyridin-3-yl)-amino)piperidine-2,6-dione], the EC50 in assay [1] was determined as 23.6 nM. Besides, the DC50 in assay [2] stood at 6.6 nM.
As for `CNc1cc(=O)n(-c2ccnc3c2cc([C@H](C)N2CC=C(c4c(F)cc(C(=O)N5CCn6nc(CN7CCC(c8ccc(NC9CCC(=O)NC9=O)cc8F)CC7)cc6C5)cc4F)CC2)n3C)cc1F` (stereo partly drawn) [Example 2g112, 3-((4-(1-((5-(3,5-difluoro-4-(1-((S)-1-(4-(5-fluoro-4-(methylamino)-2-oxopyridin-1(2H)-yl)-1-methyl-1H-pyr-rolo[2,3-b]pyridin-2-yl)ethyl)-1,2,3,6-tetrahydropyridin-4-yl)benzoyl)-4,5,6,7-tetra-hydropyrazolo[1,5-a]pyrazin-2-yl)methyl)piperidin-4-yl)-3-fluorophenyl)amino)piperi-dine-2,6-dione], in assay [1], the EC50 stood at 0.9 nM. Further, the DC50 in assay [2] is 1.1 nM.
Taken in the same sequence, the figures for `CNc1ccn(-c2ccnc3c2cc([C@H](C)N2CC=C(c4c(C)cc(C(=O)N5CCn6nc(CN7CCC(c8ccc(NC9CCC(=O)NC9=O)c(OC)c8)CC7)c(Cl)c6C5)cc4F)CC2)n3C)c(=O)c1` (stereo partly drawn) [Example 2g52, 3-((4-(1-((3-chloro-5-(3-fluoro-5-methyl-4-(1-((S)-1-(1-methyl-4-(4-(methyl-amino)-2-oxopyridin-1(2H)-yl)-1H-pyrrolo[2,3-b]pyridin-2-yl)ethyl)-1,2,3,6-tetrahydro-pyridin-4-yl)benzoyl)-4,5,6,7-tetrahydropyrazolo[1,5-a]pyrazin-2-yl)methyl)piperi-din-4-yl)-2-methoxyphenyl)-amino)piperidine-2,6-dione] were 0.3 nM and 0.8 nM.
Regarding `CNc1ccn(-c2ccnc3c2cc([C@H](C)N2CC=C(c4c(C)cc(C(=O)N5CCn6nc(CN7CCC(c8ccc(N[C@H]9CCC(=O)NC9=O)c(OC)c8)CC7)cc6C5)cc4F)CC2)n3C)c(=O)c1` (single isomer, unassigned) [Example 2g117], the EC50 in assay [1] came to 0.5 nM. Also, the DC50 in assay [2] is 0.3 nM.
The Emax is the maximal effect, on the per cent scale that the assay sets. Take `CNc1ccn(-c2ccnc3c2cc([C@H](C)N2CCC(c4ccc(C(=O)N5CCC(CN6CCN(c7ccc(NC8CCC(=O)NC8=O)cc7F)CC6)CC5)cc4)CC2)n3C)c(=O)c1` (stereo partly drawn) [Example 2c31, 3-((3-fluoro-4-(4-((1-(4-(1-((S)-1-(1-methyl-4-(4-(meth-ylamino)-2-oxopyridin-1(2H)-yl)-1H-pyrrolo[2,3-b]pyridin-2-yl)ethyl)piperidin-4-yl)-benzoyl)piperidin-4-yl)meth-yl)piperzin-1-yl)phenyl)-amino)-piperidine-2,6-dione]: in assay [1], the EC50 turned out to be 22.5 nM. Further, the Emax in assay [2] (HeLa, maximal STAT6 degradation) was 70 to 80%.
In assay [1], `CNc1cc(=O)n(-c2ccnc3c2cc([C@H](C)N2CC=C(c4c(C)cc(C(=O)N5CCC(CN6CCN(c7ccc(NC8CCC(=O)NC8=O)cc7F)CC6)CC5)cc4F)CC2)n3C)cc1F` (stereo partly drawn) [Example 2g91, 3-((3-fluoro-4-(4-((1-(3-fluoro-4-(1-((S)-1-(4-(5-fluoro-4-(methylamino)-2-oxopyridin-1(2H)-yl)-1-methyl-1H-pyrrolo[2,3-b]pyridin-2-yl)ethyl)-1,2,3,6-tetrahydropyridin-4-yl)-5-methyl-benzoyl)piperidin-4-yl)methyl)piperazin-1-yl)-phenyl)amino)piperidine-2,6-dione] yielded an EC50 of 9.2 nM. Besides, the DC50 in assay [2] stood at 7 nM.
In turn, `CNc1ccn(-c2ccnc3c2cc([C@H](C)N2CC=C(c4c(F)cc(C(=O)N5CCn6nc(CN7CCC(c8ccc(NC9CCC(=O)NC9=O)cc8F)CC7)cc6C5)cc4F)CC2)n3C)c(=O)c1` (stereo partly drawn) [Example 2g108, 3-((4-(1-((5-(3,5-difluoro-4-(1-((S)-1-(1-methyl-4-(4-(methylamino)-2-oxopyridin-1(2H)-yl)-1H-pyrrolo[2,3-b]pyridin-2-yl)ethyl)-1,2,3,6-tetrahydropyridin-4-yl)benzo-yl)-4,5,6,7-tetrahydropyrazolo [1,5-a]pyrazin-2-yl)methyl)-piperidin-4-yl)-3-fluorophen-yl)amino)piperidine-2,6-dione] returned an EC50 in assay [1] of 0.7 nM. The DC50 in assay [2] amounted to 0.5 nM.
The corresponding values for `CNc1cc(=O)n(-c2ccnc3c2cc([C@H](C)N2CC=C(c4c(C)cc(C(=O)N5CCn6nc(CN7CCC(c8ccc(NC9CCC(=O)NC9=O)cc8F)CC7)cc6C5)cc4F)CC2)n3C)cc1F` (stereo partly drawn) [Example 2g4, 3-((3-fluoro-4-(1-((5-(3-fluoro-4-(1-((S)-1-(4-(5-fluoro-4-(methylamino)-2-oxopyridin-1(2H)-yl)-1-meth-yl-1H-pyrrolo[2,3-b]pyridin-2-yl)ethyl)-1,2,3,6-tetrahydro-pyridin-4-yl)-5-methylbenzo-yl)-4,5,6,7-tetrahydropyrazolo [1,5-a]pyrazin-2-yl)methyl)-piperidin-4-yl)phenyl)amino)-piperidine-2,6-dione] are 1.9 nM and 0.5 nM.
Taken in the same sequence, the figures for `CNc1ccn(-c2ccnc3c2cc([C@H](C)N2CC=C(c4c(C)cc(C(=O)N5CCn6nc(CN7CCC(c8ccc(NC9CCC(=O)NC9=O)cc8F)CC7)cc6C5)cc4F)CC2)n3C)c(=O)c1` (stereo partly drawn) [Example 2g15, 3-((3-fluoro-4-(1-((5-(3-fluoro-5-methyl-4-(1-((S)-1-(1-methyl-4-(4-(methyl-amino)-2-oxopyridin-1(2H)-yl)-1H-pyrrolo[2,3-b]pyridin-2-yl)ethyl)-1,2,3,6-tetrahydro-pyridin-4-yl)benzoyl)-4,5,6,7-tetrahydropyrazolo[1,5-a]pyr-azin-2-yl)methyl)piperidin-4-yl)phenyl)amino)piperidine-2,6-dione] were 0.1 nM and 0.2 nM.
`CNc1ccn(-c2ccnc3c2cc(CN2CCC(c4c(F)cc(C(=O)N5CCn6nc(CN7CCC(c8ccc(N[C@@H]9CCC(=O)NC9=O)cc8F)CC7)cc6C5)cc4F)CC2)n3C)c(=O)c1` (single isomer, unassigned) [Example 2g102] yielded an EC50 in assay [1] of 0.8 nM. The DC50 in assay [2] was determined as 1.5 nM.
The corresponding values for `CNc1ccn(-c2ccnc3c2cc([C@H](C)N2CC=C(c4c(C)cc(C(=O)N5CCn6nc(CN7CCC(c8ccc(N[C@@H]9CCC(=O)NC9=O)c(OC)c8)CC7)cc6C5)cc4F)CC2)n3C)c(=O)c1` (single isomer, unassigned) [Example 2g118] are 1.1 nM and 0.1 nM.
`CNc1cc(=O)n(-c2ccnc3c2cc([C@H](C)N2CC=C(c4c(C)cc(C(=O)N5CCn6nc(CN7CCC(c8ccc(N[C@H]9CCC(=O)NC9=O)cc8F)CC7)cc6C5)cc4F)CC2)n3C)cc1F` (single isomer, unassigned) [Example 2g6] had an EC50 in assay [1] of 1.5 nM. The DC50 in assay [2] turned out to be 0.3 nM.
Consider `C[C@@H]1CN(c2ccc(NC3CCC(=O)NC3=O)cc2F)CCN1CC1CCN(C(=O)c2ccc(C3CCN([C@@H](C)c4cc5c(-n6ccc7c(c6=O)CCN7)ccnc5n4C)CC3)cc2)CC1` (stereo partly drawn) [Example 2f14, 3-((3-fluoro-4-((R)-3-methyl-4-((1-(4-(1-((S)-1-(1-methyl-4-(4-oxo-1,2,3,4-tetrahydro-5H-pyrrolo[3,2-c]pyridin-5-yl)-1H-pyrrolo[2,3-b]pyridin-2-yl)ethyl)piperidin-4-yl)-benzoyl)piperidin-4-yl)-meth-yl)piperazin-1-yl)phenyl)-amino)piperidine-2,6-dione], for which the EC50 in assay [1] was determined as 18.6 nM. Besides, the DC50 in assay [2] was found to be 7.8 nM.
As for `Cn1c(CN2CCC(c3c(F)cc(C(=O)N4CCC(CN5CCN(c6ccc(NC7CCC(=O)NC7=O)cc6F)CC5)CC4)cc3F)CC2)cc2c(-n3ccc4c(c3=O)CCN4)ccnc21` (stereo not shown) [Example 2g35, 3-((4-(4-((1-(3,5-difluoro-4-(1-((1-methyl-4-(4-oxo-1,2,3,4-tetrahydro-5H-pyrrolo [3,2-c]pyridin-5-yl)-1H-pyrrolo[2,3-b]pyridin-2-yl)-methyl)piperidin-4-yl)benzo-yl)piperidin-4-yl)methyl)-piperazin-1-yl)-3-fluorophen-yl)-amino)piperidine-2,6-dione], the response in assay [1] was half-maximal at 73.2 nM (EC50). Also, the DC50 in assay [2] was 16 nM.

The values are drawn from patent US20250320205A1, “STAT6 DEGRADERS” (Gilead Sciences, Inc., priority 2024, published 2025).
